# In PMC8954816, “Quantitative Analysis of Daporinad (FK866) and Its In Vitro and In Vivo Metabolite Identification Using Liquid Chromatography-Quadrupole-Time-of-Flight Mass Spectrometry” (Molecules, 2022):
# Like-named read-outs stand apart in the source and are kept apart here.
# Assays:
# [1] = Intravenous pharmacokinetic study of Daporinad in mice (plasma, LC-qTOF-MS, NCA); format: in vivo, mouse; conditions: for AUC(0-t) / Cmax / clearance / half-life / Vd: male, ICR; for AUC(0-t) / Cmax / clearance / half-life: n = 3; for Vd: n = 3, read-out: Vss
# Method: The developed LC-qTOF-MS method was successfully applied to obtain the PK parameters of Daporinad in mouse plasma following IV administration at the doses of 5, 10 and 30 mg/kg. The concentrations of most PK samples were within the qualified calibration curve except some PK samples at early time point samples. Therefore, early time point PK samples were diluted appropriately with blank mouse plasma to ensure that every sample concentration was within the calibration curve range. The PK parameters were calculated with the non-compartmental analysis (NCA) using WinNonlin (version 8.0.0) and the results are summarized in Table 4.
# An aliquot of 4 µL of STD or QC working solutions were spiked into 20 µL of blank mouse plasma, and 4 µL of make-up DMSO was spiked into 20 µL of the mouse PK sample to make it the same matrix condition as the STD and QC sample. Then, 100 µL of ISTD solution was added to STD, QC and the study sample. Then, the samples were vortexed for about 1 min and centrifuged at 10,000× g rpm for 5 min. After centrifugation, 75 µL of supernatant was taken and mixed with 75 µL of DW. After that, the aliquot was transferred to an LC vial for the LC-qTOF-MS analysis.
# Male ICR mice (30 ± 3 g) were purchased from the Samtako biokorea co. (Pocheon, Gyeonggi, Korea) and housed in groups of 6~8 per cage and given standard rodent chow. The animals were fasted overnight with free access to water for at least 12 h before administration. Mice were distributed into three different dosing groups (n = 3 for each dosing group; 5, 10 and 30 mg/kg). The blood sampling time points were 2, 10, 30, 60, 120, 240 and 420 min after administration. The sampling blood samples were centrifuged at 12,000× g rpm for 5 min and the plasma was transferred to another tube and then stored at −20 °C until further analysis. All experiment performed on the mouse were approved by abiding the animal care protocol (no. CNU-01104) from Chungnam National University. The procedures were abided by the guidelines established by the Association for Assessment and Accreditation of Laboratory Animal Care International (AAALAC International).
# Data acquisition and LC-qTOF-MS operation was conducted using Analyst® TF Version 1.6 (Sciex, Foster City, CA, USA). MultiQuant® Version 2.1.1 (Sciex, Foster City, CA, USA) was used for the peak integration for Daporinad quantification. PeakView® Version 2.2 (Sciex, Foster City, CA, USA) and MetabolitePilot™ Version 2.0.2 (Sciex, Foster City, CA, USA) were used for the structural elucidation of Daporinad metabolites. The descriptive statistics for the qualification studies were calculated with Excel 2015 (Microsoft). Pharmacokinetic parameters were calculated in a non-compartmental analysis using WinNonlin® version 8.0.0 (Certara, Princeton, NJ, USA).
# [2] = Preliminary stability tests for Daporinad in mouse plasma; format: in vitro ADME; conditions: 14 days, −20 °C, n = 3
# [3] = as above; format: in vitro ADME; conditions: for Freeze–thaw stability, mean accuracy: 3 cycles; for Freeze–thaw stability, mean accuracy / Short-term stability, mean accuracy: n = 3; for Short-term stability, mean accuracy: 4 h
# Method: Daporinad was stable in mouse plasma for […] three cycles of freeze–thawing and also stable during at least 2 weeks at −80 °C storage condition.
# Three levels of QC were used for the short-term, freeze–thaw and long-term stability assessments. The short-term stability assessment was carried out at RT for 4 h, and the long-term stability samples were kept frozen at −80 °C for 2 weeks. The freeze–thaw stability was evaluated over three cycles of freezing (−80 °C) and thawing (RT). The stability test results were evaluated by confirming that the mean accuracy (%) of the nominal value which should be within ±25% acceptance criteria.
# [4] = mouse plasma, dose range 10 to 30 mg/kg
smiles,measurement,setting,value
O=C(/C=C/c1cccnc1)NCCCCC1CCN(C(=O)c2ccccc2)CC1 [Daporinad],AUC(0-t),"[1]; mouse plasma, 5 mg/kg",2860 ng·h/mL
same,Cmax,"[1]; mouse plasma, 5 mg/kg",5480 ± 427 ng/mL
same,clearance,"[1]; mouse plasma, 5 mg/kg",29.3 ± 3.7 mL/min/kg
same,half-life,"[1]; mouse plasma, 5 mg/kg",52.9 ± 7.3 min
same,Vd,"[1]; mouse plasma, 5 mg/kg",0.897 ± 0.199 L/kg
same,AUC(0-t),"[1]; mouse plasma, 10 mg/kg",5950 ng·h/mL
same,Cmax,"[1]; mouse plasma, 10 mg/kg",14900 ng/mL
same,clearance,"[1]; mouse plasma, 10 mg/kg",28.1 ± 2.78 mL/min/kg
same,half-life,"[1]; mouse plasma, 10 mg/kg",50.5 ± 4.88 min
same,Vd,"[1]; mouse plasma, 10 mg/kg",0.647 ± 0.0915 L/kg
same,AUC(0-t),"[1]; mouse plasma, 30 mg/kg",29400 ng·h/mL
same,Cmax,"[1]; mouse plasma, 30 mg/kg",48100 ng/mL
same,clearance,"[1]; mouse plasma, 30 mg/kg",17.9 ± 5.11 mL/min/kg
same,half-life,"[1]; mouse plasma, 30 mg/kg",40.8 ± 0.95 min
same,Vd,"[1]; mouse plasma, 30 mg/kg",0.536 ± 0.11 L/kg
same,Dose proportionality of Cmax and AUC,"[1]; mouse plasma, dose range 5 to 10 mg/kg",dose proportional
same,Dose proportionality of AUC,[1]; [4],supra-proportional
same,Dose proportionality of Cmax,[1]; [4],dose-proportional
same,Clearance classification,"[1]; mouse, 5 to 30 mg/kg",low to moderate clearance
same,"Long-term stability, mean accuracy",[2]; High QC (1820 ng/mL),91.4%
same,"Long-term stability, mean accuracy",[2]; Low QC (15.0 ng/mL),111%
same,"Long-term stability, mean accuracy",[2]; Medium QC (165 ng/mL),84.5%
same,"Freeze–thaw stability, mean accuracy","[3]; mouse plasma, −80 °C, High QC (1820 ng/mL)",116%
same,"Freeze–thaw stability, mean accuracy","[3]; mouse plasma, −80 °C, Low QC (15.0 ng/mL)",105%
same,"Freeze–thaw stability, mean accuracy","[3]; mouse plasma, −80 °C, Medium QC (165 ng/mL)",117%
same,"Short-term stability, mean accuracy","[3]; mouse plasma, RT, High QC (1820 ng/mL)",104%
same,"Short-term stability, mean accuracy","[3]; mouse plasma, RT, Low QC (15.0 ng/mL)",103%
same,"Short-term stability, mean accuracy","[3]; mouse plasma, RT, Medium QC (165 ng/mL)",102%
same,Time stable in mouse plasma at room temperature,"[3]; mouse plasma, RT",at least 4 h
same,Time stable in mouse plasma at storage condition,"[3]; mouse plasma, −80 °C storage",at least 2 weeks
same,Freeze–thaw stability in mouse plasma,"[3]; −80 °C, three cycles of freeze–thawing",stable
